Reference: patent publication US11925632B2, “Isoquinoline derivatives for use in treating GLUT1 deficiency syndrome” (GLIAPHARM SA, priority 2019, dated 2024)

Tests used:
[1] = test system: astrocytes transfected with scramble siRNA; experiment: 2-deoxyglucose (2DG) uptake, scramble siRNA astrocytes; format: cell-based, mouse; settings: 30 min treatment, 1 or 10 μM, vs vehicle
Description: Astrocytes grown on 12-well plates and transfected with either scramble siRNA or GLUT1 siRNA were used. 1 day after having replaced transfection medium (DIV13), 2DG uptake was measured after treatment for 30 min with Vehicle (0.1% DMSO) or with the compound of the invention (1) (concentrations of 1 or 10 μM). During treatment, 1 mM 2DG was added to the medium for assessment of 2DG uptake. At the end of the stimulation, medium was removed and replaced with 150 μl NaOH 0.1M, and stored at −20° C. After thawing, cells were collected using cell scraper and heated for 40 min at 85° C. Then, 150 ul HCl 0.1M and TAE buffer 200 mM was added to each condition. 20 μl were added to a transparent 96-well plate and 2DG was quantified by addition of a reaction solution containing 50 mM TAE, 50 mM KCl, 0.02% BSA, 0.1 mM NADP, 0.2 U/ml diaphorase, 2 mM resazurin and 20 U/ml glucose-6-phosphate dehydrogenase. Concentration of 2DG in samples were calculated by comparison with standard curve of deoxy-glucose-6-phosphate ranging from 0 to 1 nmoles.
(§1) Scramble and GLUT1 siRNA sequences were as following:
Cells were grown in transfection medium for 3 days at 37° C. in a humidified atmosphere containing 5% CO2/95% air. […]
2DG uptake after treatment with Veh or compound of the invention (1) was measured in astrocytes transfected with scramble siRNA or GLUT1 siRNA (FIG. 4A).

C57Bl/6J wild-type mice = experiment: In vivo pharmacodynamics, lactate biosensors (cerebral extracellular lactate); parameters: species or system mouse; settings: 3 h recording, AUC ratio vs vehicle
Description: (§2) For pharmacodynamics (FIG. 5) and cognition (FIG. 7) experiments, adult male C57Bl/6J wild-type mice weighting 18-28 g (8 weeks of age) were used (Charles River). For ALS mouse models (FIG. 6), G93A SOD1 transgenic male and female mice on B6.SJL1-Gur/J background were used (Jackson Laboratory).
(§3) Animals were housed in groups of 3-5 in polypropylene cages (30×40×15 cm) with wire mesh top in a temperature (22±2° C.) and humidity (55±15%) controlled environment on a 12 hour light cycle (07.00-19.00 h lights on), except after surgeries when animal were housed individually. […]
Cerebral extracellular levels of lactate were monitored in vivo using lactate biosensors (Pinnacle Technology), according to the manufacturer's instructions. […] After surgery, mice were monitored closely and received analgesic treatment for at least 4 days. […] Concentrations of cerebral extracellular lactate were calculated from lactate probe electric signals using post-calibration values. […] Area Under the Curve (AUC) of lactate concentration curves were calculated using Graphpad Prism and the ratio of AUC after drug over Vehicle administration was calculated. Extracellular concentrations of L-lactate were measured in real time in freely moving animals for 3 hours after administration of Vehicle or Compound (1) (FIG. 5).

[2] = test system: G93A SOD1 transgenic mice; experiment: SOD1 G93A mouse ALS model (grip test, survival); format: in vivo
Description: as §2, §3
Transgenic mice on B6.SJL1-Gur/J background overexpressing the human mutated gene G93A SOD1 were used. […] F1 pups were genotyped after ear punching at weaning, using quantitative PCR (qPCR), which allowed determining the number of SOD1 copies in each mouse. […] Each mouse's weight was recorded every day throughout the entire treatment, while neuromuscular function was measured once a week. […]
The experiment was conducted in a room with a low light intensity (30 lux) to reduce stressful environment. […] Mice ability to grip the grid (time [s]) was measured in order to assess for their muscle strength and coordination. […]

[3] = test system: astrocytes transfected with scramble siRNA; experiment: Lactate secretion, scramble siRNA astrocytes; format: cell-based, mouse; settings: vs vehicle
Description: Secretion of L-lactate was measured in the extracellular medium of 96-well plated astrocytes after 90 min stimulation (at 37° C., in 5% CO2/95% air conditions) with Vehicle (DMSO), the compounds of the invention (100 nM to 100 μM) or positive control. […] Stimulation medium was composed of D5030 medium complemented with 5 mM D-glucose and 44 mM sodium bicarbonate, pH 7.2. To quantify lactate concentrations in the extracellular medium, 200 μl of a 0.2M Glycine-semicarbazide buffer (pH 10) containing 3 mM NAD and 14 U/ml LDH was added to each well of a 96-well plate containing 30 μl aliquots of extracellular medium. Samples were incubated at 37° C. for 1 h. Fluorescence intensity (340 nm excitation/450 nm emission), which represents the amount of NADH produced, was measured, and lactate concentration values were determined relative to a standard curve of L-lactate concentrations.
as §1
Cells were grown in transfection medium for 3 days at 37° C. in a humidified atmosphere containing 5% CO2/95% air. After 3 days, transfection medium was replaced with DMEM D5030 supplemented with 44 mM NaHCO3 and 5 mM D-Glucose (1 ml per well).
Lactate secretion after treatment with Veh or compound of the invention (1) was measured in astrocytes transfected with scramble siRNA or GLUT1 siRNA (FIG. 4B).

COc1cc2ccnc(Nc3ccc(OC(F)(F)F)cc3)c2cc1OC [Example 1, 6,7-dimethoxy-N-(4-(trifluoromethoxy)phenyl)isoquinolin-1-amine]
2DG uptake [1]: significantly enhances 2DG uptake | Extracellular lactate levels in the brain (C57Bl/6J wild-type mice; 10 mg/kg per os): significantly increases extracellular lactate levels | Extracellular lactate levels in the brain (C57Bl/6J wild-type mice; 100 mg/kg per os): significantly increases extracellular lactate levels | Muscle function (grip test), onset of symptoms ([2]; 10 mg/kg oral daily from post-natal day 30, measured weekly until 16 weeks of age): delayed the onset of the symptoms | Survival (life span, Kaplan-Meier) ([2]; 10 mg/kg oral daily from post-natal day 30, vs vehicle): significantly increased life span | Lactate secretion [3]: significantly enhances lactate secretion
